In patent US11066398B2, “Small molecule c-Myc inhibitors” (THE SCRIPPS RESEARCH INSTITUTE, priority 2013, dated 2021):

How the values were obtained:
ATG-Myc = ATG-Myc (Homo sapiens, UniProt P01106); assay: Myc-induced oncogenic transformation (focus assay) in chicken embryo fibroblasts; type: cell-based; settings: for Inhibition of ATG-Myc focus formation: CEF focus assay, concentration of 10 μM; for EOT (efficiency of transformation): focus counts in the presence of inhibitor over focus counts of control plates, CEF infected with RCAS ATG-Myc
Sequence of ATG-Myc (P01106 whole entry): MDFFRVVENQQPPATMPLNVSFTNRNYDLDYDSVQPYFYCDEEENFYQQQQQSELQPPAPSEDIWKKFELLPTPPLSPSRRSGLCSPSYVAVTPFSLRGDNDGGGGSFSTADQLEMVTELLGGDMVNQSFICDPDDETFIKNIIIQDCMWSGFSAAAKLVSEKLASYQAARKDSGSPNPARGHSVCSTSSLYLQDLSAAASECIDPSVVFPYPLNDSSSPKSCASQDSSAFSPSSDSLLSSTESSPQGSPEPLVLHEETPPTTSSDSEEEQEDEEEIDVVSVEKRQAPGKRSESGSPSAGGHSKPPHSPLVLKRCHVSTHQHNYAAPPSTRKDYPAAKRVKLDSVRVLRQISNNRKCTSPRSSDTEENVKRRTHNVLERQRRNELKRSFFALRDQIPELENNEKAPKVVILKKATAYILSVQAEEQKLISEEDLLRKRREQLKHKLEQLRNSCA

v-src, and v-jun = settings: CEF specificity assay
Protocol: Assay for oncogenic transformation in cell culture. […] CEF were infected with a series of ten-fold dilutions of the indicated virus. Compounds were added to the nutrient agar overlay. Additional compound-containing overlay was added every 3 days until experimental end point.
The specificity of the inhibitory activities of the analog compounds was also examined.

MYC = assay: Myc levels by Western blot in MDA-MB-231 and NCI-H460 cells; type: cell-based, human; settings: 20 μM, 24 hrs
Protocol: (§1) NCI-H460 cells were grown in RPMI medium, and MDA-MB-231 cells were grown in DMEM medium; both media contained 10% FBS. KJ-Pyr-9 and 10058-F4 were added at a concentration of 20 μM and the cells were treated for 24 hrs before Western blot analysis.
(§2) Interference with Myc transcriptional activity of Myc affects the transcription of a large number of target genes and can function as activator or repressor. […] NDRG1 is a direct transcriptional target of Myc that acts as a repressor of this gene. For comparison, we used the previously identified inhibitor of MYC-MAX dimerization that binds to the disordered monomer and prevents Myc from adopting a conformation needed for the interaction with MAX (Wang et al., Mol. Cancer Ther. 6:2399-2408, 2007; and Huang et al., Exp. Hematol. 34:1480-1489, 2006). Both KJ-Pyr-9 and 10058-F4 cause an increase of NDRG1 expression (FIG. 4).

[1] = test system: NDRG1 (N-myc downregulated gene 1); assay: NDRG1 expression by Western blot in MDA-MB-231 and NCI-H460 cells; type: cell-based, human; settings: 20 μM, 24 hrs
Protocol: as §1, §2

SMILES	Inhibition of ATG-Myc focus formation (ATG-Myc)	further results
COC(=O)c1cccc(-c2cc(-c3ccc(C(N)=O)cc3)cc(-c3ccco3)n2)c1 [CG-RS-70]	no foci formation	Cell growth in CEF focus assay (ATG-Myc; CEF): slight decrease in cell growth
COc1ccc(-c2cc(-c3ccc(C(N)=O)o3)cc(-c3ccco3)n2)cc1 [KJ-Pyr-6, 5-(2-(furan-2-yl)-6-(4-methoxyphenyl)pyridin-4-yl)furan-2-carboxamide]		EOT (efficiency of transformation) (ATG-Myc): 0.79
NC(=O)c1ccc(-c2cc(-c3ccc([N+](=O)[O-])cc3)nc(-c3ccco3)c2)o1 [CG-RS-50, 5-(2-(furan-2-yl)-6-(4-nitrophenyl)pyridin-4-yl)furan-2-carboxamide]	some inhibiting activities	Inhibition of Myc oncogenic activity in CEF transformation assay (ATG-Myc; CEF, ATG-Myc): effective
N#Cc1ccc(-c2cc(-c3ccc(C(N)=O)cc3)cc(-c3ccco3)n2)cc1 [CG-RS-47]	no foci formation	Specificity for inhibiting Myc over v-src, 111047R and v-jun (v-src, and v-jun): some degrees of specificity
NC(=O)c1ccc(-c2cc(-c3ccc(SC(F)(F)F)cc3)nc(-c3ccco3)c2)cc1 [CG-RS-61]	no inhibition	
NC(=O)c1ccc(-c2cc(-c3ccc([N+](=O)[O-])cc3)nc(-c3ccccc3Br)c2)cc1 [CG-RS-91]	no inhibition	
NC(=O)c1ccc(-c2cc(-c3ccncc3)nc(-c3ccc([N+](=O)[O-])cc3)c2)cc1 [CG-RS-129]	no foci formation	Specificity for inhibiting Myc over v-src, 111047R and v-jun (v-src, and v-jun): some degrees of specificity; Cell growth in CEF focus assay (ATG-Myc; CEF): slight decrease in cell growth
NC(=O)c1ccc(-c2cc(-c3ccc(Br)cc3)nc(-c3ccc([N+](=O)[O-])cc3)c2)cc1 [CG-RS-90]	no inhibition	
CS(=O)(=O)c1ccc(-c2cc(-c3ccc(C(N)=O)cc3)cc(-c3ccco3)n2)cc1 [CG-RS-58]	no inhibition	
NC(=O)c1ccc(-c2cc(-c3ccc([N+](=O)[O-])cc3)nc(-c3cccc(Br)n3)c2)cc1 [CG-RS-106]	no inhibition	
NC(=O)c1ccc(-c2cc(-c3ccc(OC(F)(F)F)cc3)nc(-c3ccco3)c2)cc1 [CG-RS-55]	some inhibiting activities	
NC(=O)c1ccc(-c2cc(-c3ccc([N+](=O)[O-])cc3)nc(-c3ccc(Br)cn3)c2)cc1 [CG-RS-123]	no inhibition	
COC(=O)c1ccc(-c2cc(-c3ccc(C(N)=O)cc3)cc(-c3ccco3)n2)cc1 [CG-RS-64]	no inhibition	
NC(=O)c1ccc(-c2cc(-c3ccc(C(F)(F)F)cc3)nc(-c3ccco3)c2)cc1 [CG-RS-54]	some inhibiting activities	
CCc1ccc(/C=C2/SC(=S)NC2=O)cc1 [Compound 10058-F4, reference compound]		Effect on Myc levels (MYC): strong decrease; NDRG1 expression [1]: increase
NC(=O)c1ccc(-c2ccc(-c3cc(-c4ccccc4)nc(-c4ccco4)c3)cc2)cc1 [KJ-Pyr-4, 4′-(2-(furan-2-yl)-6-phenylpyridin-4-yl)-[1,1′-biphenyl]-4-carboxamide]		EOT (efficiency of transformation) (ATG-Myc): 1.12
NC(=O)c1ccc(-c2cc(-c3ccc([N+](=O)[O-])cc3)nc(-c3ccccn3)c2)cc1 [CG-RS-128]	no inhibition	
